From patent US20230220063A1, “IL-1BETA BINDING ANTIBODIES FOR USE IN TREATING CANCER” (NOVARTIS AG, priority 2017, published 2023)

What was measured:
[1] = tested on: patients with a prior heart attack and inflammatory atherosclerosis; assay: CANTOS primary endpoint: major adverse cardiovascular events (MACE); assay type: in vivo, human; conditions: in combination with standard of care
Excerpt: The present invention arose, at least in part, from the analysis of the data generated from the CANTOS trial, which is a randomized, double-blind, placebo-controlled, event-driven trial. […] Participants were followed for incident cancer diagnoses over a median follow-up period of 3.7 years.
MACE is a composite of cardiovascular death, non-fatal myocardial infarction and non-fatal stroke.

[2] = tested on: MDA-MB-231 Luc2-TdTomato cells; assay: Spontaneous human breast cancer metastasis to human bone implants in NOD SCID mice; assay type: in vivo
Protocol: To model human breast cancer metastasis to human bone implants two human bone discs were implanted subcutaneously into 10-week old female NOD SCID mice (n=10/group) under isofluorane anaesthetic. Mice received an injection of 0.003 mg vetergesic and Septrin was added to the drinking water for 1 week following bone implantation. Mice were left for 4 weeks before injecting 1×10^5 MDA-MB-231 Luc2-TdTomato, MCF7 Luc2 or T47D Luc2 cells in 20% Martigel/79% PBS/1% […] into the two hind mammary fat pads. Primary tumor growth and development of metastases was monitored weekly using an IVIS […] system (Caliper Life Sciences) following sub-cutaneous injection of 30 mg/ml D-luciferin (Invitrogen). On termination of experiments mammary tumors, circulating tumor cells, serum and bone metastases were resected. RNA was processed for downstream analysis by real time PCR, and cell lysates were taken for protein analysis and whole tissue for histology as previously described (Nutter et al., 2014; Ottewell et al., 2014a).
(§1) Tumor cells, serum, and bone were subsequently resected for downstream analysis.
Whole blood was centrifuged at 10,000 g for 5 minutes and the serum removed for ELISA assays. The cell pellet was re-suspended in 5 ml of FSM lysis solution (Sigma-Aldrich, Pool, UK) to lyse red blood cells. Remaining cells were re-pelleted, washed 3x in PBS and re-suspended in a solution of PBS/10% FCS. Samples from 10 mice per group were pooled prior to isolation of TdTomato positive tumor cells using a MoFlow High performance cell sorter (Beckman Coulter, Cambridge UK) with the […] laser line from a Coherent I-90C tenable argon ion (Coherent, Santa Clara, CA). TdTomato fluorescence was detected by a 555LP dichroic long pass and a 580/30 nm band pass filter. Acquisition and analysis of cells was performed using Summit 4.3 software. Following sorting cells were immediately placed in RNA protect cell reagent (Ambion, Paisley, Renfrew, UK) and stored at -80° C. before RNA extraction.

[3] = tested on: vasculature in trabecular bone; assay: Blocking IL-1β signalling: blood vessels in the bone microenvironment of mice; assay type: in vivo
Protocol: Vasculature was visualised following CD34 and endomucin immunohistochemistry and the concentration of vascular endothelial growth factor (VEGF) and endothelin-1 in serum and/or bone marrow was determined by ELISA. Effects on bone volume were measured by Micro computed tomography (uCT).
as §1

[4] = murine model of spontaneous human breast cancer metastasis to human bone

canakinumab: high-affinity, fully human monoclonal antibody of the IgG1/k to interleukin-1β; INN number 8836
risk of major adverse cardiovascular events (MACE) [1]: reduces the risk of major adverse cardiovascular events
mice with metastasis detected in human bone implants ([2]; 1 mg/kg IL-1Ra daily or 10 mg/kg canakinumab s.c. every 14 days from day 7, control 7 out of 10): 1 out of 10
bone metastasis, photons/sec mean values ([2]; Placebo 3.60E+06): 6.01E+04 photons/sec
size of bone metastases ([2]; compared with control group): smaller than those detected in the control group
bone turnover and neovascularisation ([2]; mouse, in vivo): reduced bone turnover and neovascularisation
bone metastasis [2, 4]: significantly reduced bone metastasis
primary tumour growth [2, 4]: increasing primary tumour growth
tumor cells counted in whole blood ([2]; placebo 108 tumor cells/ml): 3 tumor cells/ml
length of new blood vessels ([3]; 24 hours Ilaris, control 0.09 mm): 0.06 mm
endothelin 1 and VEGF in the bone marrow (ELISA) ([3]; compared with control): reduced concentrations
reduction in VEGF concentration ([3]; mice treated for 96 hours): 46%
reduction in endothelin-1 concentration ([3]; mice treated for 96 hours): 47%
average length of CD34^+ blood vessels in trabecular bone ([3]; p < 0.01 vs control): reduced the average length of CD34^+ blood vessels
